{
  "source": "patent US11033572B2",
  "about": "“Molecular adjuvants for enhanced cytosolic delivery of active agents” (Universiteit Gent, priority 2017, dated 2021)",
  "format_in_all_cases": "cell-based",
  "key": {"H1299_eGFP cells [1]": {"tested_on": "H1299_eGFP cells", "experiment": "siNG transfection and sequential adjuvant treatment, eGFP silencing by flow cytometry", "conditions": "for adjuvant effect on siNG-mediated eGFP silencing: sequential treatment 10, 20 or 40 μM, 20 h, siNGs 2 nM siRNA; for cellular siRNA delivery promoting effect: β2 agonists, 10, 20, 40 μM, 20 h after siNGs"}, "H1299_eGFP cells [2]": {"tested_on": "H1299_eGFP cells", "experiment": "Side scatter (cellular granularity) by flow cytometry", "procedure": "For silencing experiments, H1299_eGFP cells were seeded in 24 well plates at a density of 35000 cells/well and were allowed to settle overnight. Subsequently, the cells were transfected and treated with small molecular adjuvants as described previously. Note that for every siEGFP or siPLK1 condition an siCTRL sample was included to account for potential off target effects. SiNG-mediated eGFP silencing was determined by flow cytometry. […] The cells were collected, centrifuged during 5 minutes at 300 g, resuspended in 300 μL flow buffer and kept on ice until analysis. For each sample the forward and side scatter as well as the green fluorescent signal were measured for at least 5000 cells."}, "H1299_WT cells": {"tested_on": "H1299_WT cells", "experiment": "Phospholipidosis detection with LipidTOX Red", "conditions": "20 h incubation", "procedure": "H1299_WT cells were seeded and allowed to settle overnight as detailed previously. Next, the cells were incubated with a mixture of a 1/1000 dilution of the LipidTOX™ red phospholipidosis detection reagent (Thermo Fisher Scientific, USA) and the desired CAD in complete cell medium. Upon 20 hour incubation, the cells were fixed with 4% PFA and stored at 4° C. covered in Vectashield antifade mounting medium containing DAPI. Imaging occurred with a LSCM and a 100× oil immersion objective. DAPI and the LipidTOX™ red phospholipidosis dye were respectively excited with the 408 nm and 561 nm laser lines and the signal intensity was determined with Image J in minimum 30 cells from 5 images per condition."}, "H1299_eGFP cells [3]": {"tested_on": "H1299_eGFP cells", "experiment": "Cell viability following CAD incubation (CellTiter GLO)", "conditions": "for concentration with significant additional cytotoxicity compared to siNGs alone: human, 20 h", "procedure": "The silencing potential of siPLK1-NGs was established through evaluating the cell viability. Hereto, we applied the CellTiter GLO® assay (Promega, Belgium) according to the manufacturer's guidelines. Before initiating the assay, the culture plates and reconstituted assay buffer were placed at room temperature for 30 minutes. Next, the culture medium was replaced by 250 μL fresh cell medium and an equal volume of assay buffer was added. To induce complete cell lysis, the plates were shaken during 2 minutes and the signal was allowed to stabilize the following 10 minutes. 100 μL from each well was subsequently transferred to an opaque 96-well plate, which was measured with a GloMax® 96 Microplate Luminometer (Promega, Belgium). Three biological replicates were performed and data are expressed as the mean cell viability±SEM.\nPlease note that we only applied siCTRL-loaded NGs in this set of experiments. With the interest of evaluating the possible effect of our treatment on cell viability, the CellTiter GLO® assay was performed as described above. Again, three biological replicates were performed and data are expressed as the mean±SEM."}, "[4]": {"conditions": "relative to the first four CADs"}},
  "note": "Counter-ions that a name gives are not always drawn.",
  "data": [
    {"compound": "CCCCCCCC/C=C\\CCCCCCC(O)C(=O)O", "note": "(stereo not shown) [Compound 2-OHOA, 2-hydroxy oleic acid]", "values": [
      {"measurement": "effect on gene silencing in combination", "setting": "H1299_eGFP cells [1]; 300 μM 2OHOA combined with 10 μM DL", "value": "additive effect"}
    ]},
    {"compound": "Br.COc1ccc2c(c1)[C@]13CCCC[C@@H]1[C@H](C2)N(C)CC3", "note": "[Dextromethorphan hydrobromide, monohydrate]", "values": [
      {"measurement": "concentration significantly augmenting the SSC signal", "setting": "H1299_eGFP cells [2]; after siNG transfection", "value": "> 80", "unit": "µM"},
      {"measurement": "higher concentration required to obtain similar silencing effects", "setting": "H1299_eGFP cells [1]; [4]", "value": 10, "unit": "fold"},
      {"measurement": "adjuvant effect on siNG-mediated eGFP silencing", "setting": "H1299_eGFP cells [1]", "value": "does not influence gene silencing"},
      {"measurement": "LipidTOX Red phospholipid signal", "setting": "H1299_WT cells", "value": "only higher doses"}
    ]},
    {"compound": "CCN(CC)CCCC(C)Nc1ccnc2cc(Cl)ccc12", "note": "(stereo not shown) [Chloroquine, chloroquine]", "values": [
      {"measurement": "adjuvant effect on siNG-mediated eGFP silencing", "setting": "H1299_eGFP cells [1]", "value": "enhances gene silencing to a similar extent as the initial molecules tested"},
      {"measurement": "adjuvant effect on siNG-mediated eGFP silencing", "setting": "H1299_eGFP cells [1]; listed as CLQ", "value": "improves the silencing potential of the siNGs to a similar extent"}
    ]},
    {"compound": "OCc1cc(C(O)CNCCCCCCOCCCCc2ccccc2)ccc1O", "note": "(stereo not shown) [(18) Salmeterol, Salmeterol]", "values": [
      {"measurement": "adjuvant effect on siNG-mediated eGFP silencing", "setting": "H1299_eGFP cells [1]", "value": "significant additional silencing"},
      {"measurement": "cellular siRNA delivery promoting effect", "setting": "H1299_eGFP cells [1]", "value": "significantly improve cellular siRNA delivery"},
      {"measurement": "concentration with significant additional cytotoxicity compared to siNGs alone", "setting": "H1299_eGFP cells [3]", "value": "≥ 20", "unit": "µM"}
    ]},
    {"compound": "CC(C)(C)c1ccc(C(O)CCCN2CCC(C(O)(c3ccccc3)c3ccccc3)CC2)cc1", "note": "(stereo not shown) [(56) Terfenadine, Terfenadine]", "values": [
      {"measurement": "effect on % eGFP expression compared to siNGs alone", "setting": "H1299_eGFP cells [1]; 1, 2, 3, 4 or 5 μM", "value": "significantly reduce eGFP expression"},
      {"measurement": "concentration required for silencing effect", "setting": "H1299_eGFP cells [1]; [4]", "value": "substantially lower concentrations were required"}
    ]},
    {"compound": "COc1ccc(CC(C)NCC(O)c2ccc(O)c(NC=O)c2)cc1", "note": "(stereo not shown) [formoterol, formoterol fumarate hemisulfate]", "values": [
      {"measurement": "cellular siRNA delivery promoting effect", "setting": "H1299_eGFP cells [1]", "value": "do not qualify as siRNA delivery enhancers"}
    ]},
    {"compound": "COc1ccccc1OCCNCC(O)COc1cccc2[nH]c3ccccc3c12", "note": "(stereo not shown) [(26) Carvedilol, Carvedilol]", "values": [
      {"measurement": "adjuvant effect on siNG-mediated eGFP silencing", "setting": "H1299_eGFP cells [1]", "value": "significant additional silencing"},
      {"measurement": "cytotoxicity versus sum of separate components", "setting": "H1299_eGFP cells [3]; 40 μM sequential to siNG", "value": "exceed the sum of the effects from each separate component"},
      {"measurement": "cytotoxicity ranking, CAD treatment alone", "setting": "H1299_eGFP cells [3]; 10-40 μM, no siNG", "value": "most cytotoxic"}
    ]},
    {"compound": "CNCCC=C1c2ccccc2CCc2ccccc21.Cl", "note": "[(55) Nortriptyline hydrochloride, Nortriptyline hydrochloride]", "values": [
      {"measurement": "adjuvant effect on siNG-mediated eGFP silencing", "setting": "H1299_eGFP cells [1]", "value": "significant additional silencing"},
      {"measurement": "concentration with significant additional cytotoxicity compared to siNGs alone", "setting": "H1299_eGFP cells [3]", "value": 40, "unit": "µM"}
    ]},
    {"compound": "salbutamol hemisulfate", "values": [
      {"measurement": "cellular siRNA delivery promoting effect", "setting": "H1299_eGFP cells [1]", "value": "do not qualify as siRNA delivery enhancers"}
    ]},
    {"compound": "CCc1cc2c(cc1CC)CC(NCC(O)c1ccc(O)c3[nH]c(=O)ccc13)C2", "note": "(stereo not shown) [(57) Indacaterol maleate, Indacaterol maleate]", "values": [
      {"measurement": "cellular siRNA delivery promoting effect", "setting": "H1299_eGFP cells [1]", "value": "significantly improve cellular siRNA delivery"}
    ]},
    {"compound": "CCN(CC)CCO[C@H]1CC[C@@]2(C)C(=CC[C@@H]3[C@@H]2CC[C@]2(C)C(=O)CC[C@@H]32)C1", "note": "[Compound U18666A, U18666A]", "values": [
      {"measurement": "increase in SSC signal", "setting": "H1299_eGFP cells [2]; siNG transfection then 30 μM", "value": 2, "unit": "fold"},
      {"measurement": "effect on siNG-mediated gene silencing", "setting": "H1299_eGFP cells [1]; 30 μM", "value": "clearly improved siNG-mediated gene silencing"}
    ]}
  ]
}
